In BindingDB's records for patent US20250066368 (Shanghai Apeiron Therapeutics Company, 2025):

Target: T1, DNA polymerase theta [1792-2590] (UniProt O75417)
T1 construct: 1792-2590
T1 sequence (O75417 whole entry): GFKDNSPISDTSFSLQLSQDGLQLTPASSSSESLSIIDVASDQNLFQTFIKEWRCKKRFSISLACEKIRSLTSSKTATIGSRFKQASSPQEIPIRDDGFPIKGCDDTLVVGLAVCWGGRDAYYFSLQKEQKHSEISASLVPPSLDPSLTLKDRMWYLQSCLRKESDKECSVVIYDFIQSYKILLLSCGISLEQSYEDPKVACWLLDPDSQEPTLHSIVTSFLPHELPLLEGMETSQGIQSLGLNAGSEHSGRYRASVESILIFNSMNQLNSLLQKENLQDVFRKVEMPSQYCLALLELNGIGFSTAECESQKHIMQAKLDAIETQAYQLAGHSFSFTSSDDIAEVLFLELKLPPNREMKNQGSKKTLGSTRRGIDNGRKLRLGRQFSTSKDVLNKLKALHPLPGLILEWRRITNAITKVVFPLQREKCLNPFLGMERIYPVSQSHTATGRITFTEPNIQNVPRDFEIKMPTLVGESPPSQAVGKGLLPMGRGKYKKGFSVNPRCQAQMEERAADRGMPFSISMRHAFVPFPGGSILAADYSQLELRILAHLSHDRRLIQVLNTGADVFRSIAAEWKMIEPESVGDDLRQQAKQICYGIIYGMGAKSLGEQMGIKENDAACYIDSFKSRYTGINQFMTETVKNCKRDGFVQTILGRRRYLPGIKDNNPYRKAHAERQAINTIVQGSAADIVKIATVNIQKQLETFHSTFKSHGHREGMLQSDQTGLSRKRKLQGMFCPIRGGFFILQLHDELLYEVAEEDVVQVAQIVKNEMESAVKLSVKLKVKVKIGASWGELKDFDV
Assay: ADP-Glo Kinase Assay
Experimental: The ability of compounds to inhibit Pol 0 polymerase activity was determined by the PicoGreen method in vitro.The His-TEV-SUMO-tagged Polθ protein (amino acids 1792-2590) expressed in E. coli was purified and stored in aliquots at −80° C.The composition of the assay buffer is 25 mM Tris HCl pH 7.5, 12.5 mM NaCl, 0.5 mM MgCl2, 5% glycerol, 0.01% Triton X-100, 0.01% BSA, and 1 mM DTT.Test compounds were diluted in 100% DMSO and diluted three-fold into 10 concentration points in a dilution plate (Greiner-781280) using Bravo (Agilent) according to concentration requirements. The compounds diluted in DMSO were then diluted 20-fold in the assay buffer using Bravo. Further, 2 μl of diluted compounds were transferred to the assay plate (Corning-4512) using Bravo. The purified Pol 0 enzyme and primers ((primer strand: 5′-GCGGCTGTCATAAG-3′, SEQ ID NO: 1):(template strand: 5′-[…]-3′, SEQ ID NO: 2)=1:1.1) were prepared at a working concentration of 2.5× (1.5 nM Polθ and 50 nM PTD) in the assay buffer, transferred to the assay plate at 4 μl per well using an E1-CLIPTIP 12-channel pipette (Thermo, 1-30 l), and incubated at room temperature for 30 min. dNTP (Sigma-D7295) was diluted with the assay buffer to a working concentration of 2.5× (40 uM dNTP), transferred to the assay plate at 4 μl per well (final DMSO concentration of 1%) using an El-CLIPTIP 12-channel pipette (Thermo, 1-30 l), and incubated at room temperature for 60 min. A mixture containing 10 mM EDTA, 25 mM Tris pH 7.5, and a 1:200 diluted PicoGreen dye (Invitrogen-P7581) was added to the assay plate at 6 μl per well to stop the reaction. After 30 min of reaction at room temperature in the dark, fluorescence values were read on EnVision 2105 (PerkinElmer) using the Ex480 nm Em520 nm program, and the raw data was analyzed using XLfit to generate IC50 values.

| Structure (SMILES) | IC50 |
| --- | --- |
| CN(C(=O)[C@@H]1[C@H](O)[C@H](O)C(=O)N1c1cc(C(F)(F)F)c2c(n1)CCC2)c1cc(Cl)c(F)cc1F [US20250066368, Compound 7] | < 50 nM |
| [2H]C([2H])([2H])N(C(=O)C1[C@H](O)[C@H](O)C(=O)N1c1cc(C(F)(F)F)c2ccsc2n1)c1cc(Cl)c(F)cc1F (some centres not stated) [US20250066368, Compound 16] | < 50 nM |
| [2H]C([2H])([2H])N(C(=O)[C@@H]1[C@H](O)[C@H](O)C(=O)N1c1cc(C(F)(F)F)c2c(n1)CC=C2)c1cc(Cl)c(F)cc1F [US20250066368, Compound 19] | < 50 nM |
| CN(C(=O)[C@@H]1CNC(=O)N1c1cc(C(F)(F)F)c2c(n1)C=CC2)c1ccc(F)c(Cl)c1F [US20250066368, Compound 21] | < 50 nM |
| [2H]C([2H])([2H])N(C(=O)[C@@H]1[C@H](O)[C@H](O)C(=O)N1c1cc(C(F)(F)F)c2ncsc2n1)c1cc(Cl)c(F)cc1F [US20250066368, Compound 26] | < 50 nM |
| [2H]C([2H])([2H])N(C(=O)[C@@H]1[C@H](O)[C@H](O)C(=O)N1c1cc(C(F)(F)F)c2c(n1)C(=O)CC2)c1cc(Cl)c(F)cc1F [US20250066368, Compound 45] | < 50 nM |
| [2H]C([2H])([2H])N(C(=O)[C@@H]1[C@H](O)[C@H](O)C(=O)N1c1cc(C(F)(F)F)c2cc[se]c2n1)c1cc(Cl)c(F)cc1F [US20250066368, Compound 46] | < 50 nM |
